US5977133A, “Pyridone antibiotic with improved safety profile” (priority 1998, dated 1999)
≈ marks a conversion by molar mass, not a printed value.

Columns and labels:
Format in all cases: cell-based
[1] = tested on: S. epidermidis (CiproR); test: In vitro MIC, agar dilution; settings: Staphylococcus epidermidis
[2] = tested on: H. influenzae; test: In vitro MIC, agar dilution; settings: Haemophilus influenzae
[3] = tested on: S. aureus (CiproR); test: In vitro MIC, agar dilution; settings: Staphylococcus aureus
[4] = tested on: Klebsiella spp.; test: In vitro MIC, agar dilution
[5] = tested on: S. pneumoniae (CiproR); test: In vitro MIC, agar dilution; settings: Streptococcus pneumoniae, read-out: MIC Range
[6] = tested on: P. aeruginosa (CiproR); test: In vitro MIC, agar dilution; settings: Pseudomonas aeruginosa
[7] = tested on: Legionella spp.; test: microbe, parasite or virus in culture; settings: Legionella
[8] = tested on: H. pylori; test: In vitro MIC, agar dilution; settings: Helicobacter pylori
[9] = tested on: Shigella spp.; test: microbe, parasite or virus in culture; settings: read-out: MIC Range
[10] = tested on: E. faecium (CiproS); test: In vitro MIC, agar dilution; settings: Enterococcus faecium
[11] = tested on: S. epidermidis (CiproS); test: In vitro MIC, agar dilution; settings: Staphylococcus epidermidis
[12] = tested on: M. avium; test: In vitro MIC, agar dilution; settings: Mycobacterium avium, M. avium, 20 isolates
[13] = tested on: E. faecium (CiproR); test: In vitro MIC, agar dilution; settings: Enterococcus faecium, read-out: MIC Range
[14] = tested on: S. aureus (CiproS); test: In vitro MIC, agar dilution; settings: Staphylococcus aureus
[15] = tested on: E. faecium (VanS); test: In vitro MIC, agar dilution; settings: Enterococcus faecium
[16] = tested on: C. freundii; test: In vitro MIC, agar dilution; settings: Citrobacter freundii
[17] = tested on: M. catarrhalis; test: In vitro MIC, agar dilution; settings: Moraxella catarrhalis
[18] = tested on: P. aeruginosa (CiproS); test: In vitro MIC, agar dilution; settings: Pseudomonas aeruginosa, P. aeruginosa (CiproS), 24 isolates
[19] = tested on: B. fragilis; test: In vitro MIC, agar dilution; settings: Bacteroides fragilis
[20] = tested on: Enterobacter spp.; test: In vitro MIC, agar dilution
[21] = tested on: S. pneumoniae (PenS); test: In vitro MIC, agar dilution; settings: Streptococcus pneumoniae
[22] = tested on: M. pneumoniae; test: In vitro MIC, agar dilution; settings: Mycoplasmoides pneumoniae, read-out: MIC Range
[23] = tested on: S. pyogenes; test: In vitro MIC, agar dilution; settings: Streptococcus pyogenes
[24] = tested on: S. pneumoniae (PenR); test: In vitro MIC, agar dilution; settings: Streptococcus pneumoniae
[25] = tested on: Providencia spp.; test: In vitro MIC, agar dilution; settings: Providencia spp., 28 isolates
[26] = tested on: C. difficile; test: In vitro MIC, agar dilution; settings: Clostridioides difficile; C. difficile, 10 isolates; read-out: MIC90
[27] = tested on: N. gonorrhoeae; test: In vitro MIC, agar dilution; settings: Neisseria gonorrhoeae
[28] = tested on: P. mirabilis; test: In vitro MIC, agar dilution; settings: Proteus mirabilis
[29] = tested on: Salmonella spp.; test: In vitro MIC, agar dilution; settings: 23 isolates
In short: (§1)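 MIC, the lowest compound level without growth versus a drug-free BHI control plate, with faint haze or scattered colonies scored as no growth. About 10^4 CFU was replicator-spotted from 1:100 dilutions, or 1:10 for slow-growing strains, and plates were read after ~20–24 h at 35–37 °C.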

[30] = tested on: E. coli; test: In vitro MIC, agar dilution; settings: Escherichia coli, 25 isolates
In short: as §1

N[C@@H]1[C@H]2CN(c3nc4c(cc3F)c(=O)c(C(=O)O)cn4-c3ccc(F)cc3F)C[C@@H]12 [Trovafloxacin, trovafloxacin]
MIC ([1]; read-out: MIC Range): 1 to 16 µg/mL (≈ 2.4 to 38.4 µM)
MIC50 ([1]; S. epidermidis (CiproR), 11 isolates, read-out: MIC50): 4 µg/mL (≈ 9.61 µM)
MIC90 ([1]; S. epidermidis (CiproR), 11 isolates, read-out: MIC90): 16 µg/mL (≈ 38.4 µM)
MIC90 [2]: 0.03 µg/mL (≈ 0.0721 µM)
MIC50 ([2]; H. influenzae, 18 isolates, read-out: MIC50): 0.015 µg/mL (≈ 0.036 µM)
MIC ([2]; H. influenzae, 18 isolates, read-out: MIC Range): 0.008 to 0.06 µg/mL (≈ 0.0192 to 0.144 µM)
MIC ([3]; read-out: MIC Range): 0.25 to 4 µg/mL (≈ 0.6 to 9.61 µM)
MIC50 ([3]; S. aureus (CiproR), 25 isolates, read-out: MIC50): 2 µg/mL (≈ 4.8 µM)
MIC90 ([3]; S. aureus (CiproR), 25 isolates, read-out: MIC90): 2 µg/mL (≈ 4.8 µM)
MIC90 ([4]; Klebsiella): 0.25 µg/mL (≈ 0.6 µM)
MIC50 ([4]; Klebsiella spp., 29 isolates, read-out: MIC50): 0.12 µg/mL (≈ 0.288 µM)
MIC ([4]; Klebsiella spp., 29 isolates, read-out: MIC Range): 0.015 to 0.5 µg/mL (≈ 0.036 to 1.2 µM)
MIC [5]: 0.5 to 1 µg/mL (≈ 1.2 to 2.4 µM)
MIC90 [6]: > 128 µg/mL
MIC50 ([6]; P. aeruginosa (CiproR), 20 isolates, read-out: MIC50): > 128 µg/mL
MIC50 [7]: 0.12 µg/mL (≈ 0.288 µM)
MIC90 [7]: 0.25 µg/mL (≈ 0.6 µM)
MIC ([7]; read-out: MIC Range): 0.12 to 0.25 µg/mL (≈ 0.288 to 0.6 µM)
MIC90 [8]: 0.5 µg/mL (≈ 1.2 µM)
MIC50 ([8]; H. pylori, 17 isolates, read-out: MIC50): 0.12 µg/mL (≈ 0.288 µM)
MIC ([8]; H. pylori, 17 isolates, read-out: MIC Range): 0.06 to 1 µg/mL (≈ 0.144 to 2.4 µM)
MIC [9]: 0.015 to 0.06 µg/mL (≈ 0.036 to 0.144 µM)
MIC ([10]; read-out: MIC Range): 0.25 to 1 µg/mL (≈ 0.6 to 2.4 µM)
MIC50 ([10]; E. faecium (CiproS), 16 isolates, read-out: MIC50): 0.5 µg/mL (≈ 1.2 µM)
MIC90 ([10]; E. faecium (CiproS), 16 isolates, read-out: MIC90): 1 µg/mL (≈ 2.4 µM)
MIC90 [11]: 0.06 µg/mL (≈ 0.144 µM)
MIC50 ([11]; S. epidermidis (CiproS), 23 isolates, read-out: MIC50): 0.06 µg/mL (≈ 0.144 µM)
MIC ([11]; S. epidermidis (CiproS), 23 isolates, read-out: MIC Range): 0.015 to 0.06 µg/mL (≈ 0.036 to 0.144 µM)
MIC50 ([12]; read-out: MIC50): 32 µg/mL (≈ 76.9 µM)
MIC90 ([12]; read-out: MIC90): 64 µg/mL (≈ 154 µM)
MIC ([12]; read-out: MIC Range): 8 to 128 µg/mL (≈ 19.2 to 307 µM)
MIC [13]: 2 to 32 µg/mL (≈ 4.8 to 76.9 µM)
MIC50 [14]: 0.03 µg/mL (≈ 0.0721 µM)
MIC90 [14]: 0.03 µg/mL (≈ 0.0721 µM)
MIC ([14]; S. aureus (CiproS), 21 isolates, read-out: MIC Range): 0.008 to 0.03 µg/mL (≈ 0.0192 to 0.0721 µM)
MIC ([15]; read-out: MIC Range): 0.25 to 4 µg/mL (≈ 0.6 to 9.61 µM)
MIC50 ([15]; E. faecium (VanS), 11 isolates, read-out: MIC50): 2 µg/mL (≈ 4.8 µM)
MIC90 ([15]; E. faecium (VanS), 11 isolates, read-out: MIC90): 2 µg/mL (≈ 4.8 µM)
MIC90 [16]: 0.5 µg/mL (≈ 1.2 µM)
MIC50 ([16]; C. freundii, 20 isolates, read-out: MIC50): 0.06 µg/mL (≈ 0.144 µM)
MIC ([16]; C. freundii, 20 isolates, read-out: MIC Range): 0.003 to 1 µg/mL (≈ 0.00721 to 2.4 µM)
MIC50 [17]: 0.03 µg/mL (≈ 0.0721 µM)
MIC90 [17]: 0.06 µg/mL (≈ 0.144 µM)
MIC ([17]; M. catarrhalis, 18 isolates, read-out: MIC Range): 0.015 to 0.25 µg/mL (≈ 0.036 to 0.6 µM)
MIC50 ([18]; read-out: MIC50): 0.5 µg/mL (≈ 1.2 µM)
MIC90 ([18]; read-out: MIC90): 2 µg/mL (≈ 4.8 µM)
MIC ([18]; read-out: MIC Range): 0.12 to 4 µg/mL (≈ 0.288 to 9.61 µM)
MIC90 [19]: 0.5 µg/mL (≈ 1.2 µM)
MIC ([19]; read-out: MIC Range): 0.12 to 1 µg/mL (≈ 0.288 to 2.4 µM)
MIC50 ([19]; B. fragilis, 18 isolates, read-out: MIC50): 0.25 µg/mL (≈ 0.6 µM)
MIC90 ([20]; Enterobacter): 0.12 µg/mL (≈ 0.288 µM)
MIC50 ([20]; Enterobacter spp., 35 isolates, read-out: MIC50): 0.12 µg/mL (≈ 0.288 µM)
MIC ([20]; Enterobacter spp., 35 isolates, read-out: MIC Range): 0.015 to 0.5 µg/mL (≈ 0.036 to 1.2 µM)
MIC90 [21]: 0.5 µg/mL (≈ 1.2 µM)
MIC ([21]; read-out: MIC Range): 0.12 to 0.5 µg/mL (≈ 0.288 to 1.2 µM)
MIC50 ([21]; S. pneumoniae (PenS), 20 isolates, read-out: MIC50): 0.5 µg/mL (≈ 1.2 µM)
MIC [22]: 0.12 to 0.25 µg/mL (≈ 0.288 to 0.6 µM)
MIC90 [23]: 0.25 µg/mL (≈ 0.6 µM)
MIC50 ([23]; S. pyogenes, 21 isolates, read-out: MIC50): 0.12 µg/mL (≈ 0.288 µM)
MIC ([23]; S. pyogenes, 21 isolates, read-out: MIC Range): 0.06 to 1 µg/mL (≈ 0.144 to 2.4 µM)
MIC90 [24]: 0.25 µg/mL (≈ 0.6 µM)
MIC ([24]; read-out: MIC Range): 0.06 to 0.25 µg/mL (≈ 0.144 to 0.6 µM)
MIC50 ([24]; S. pneumoniae (PenR), 25 isolates, read-out: MIC50): 0.25 µg/mL (≈ 0.6 µM)
MIC50 ([25]; read-out: MIC50): 0.25 µg/mL (≈ 0.6 µM)
MIC90 ([25]; read-out: MIC90): 2 µg/mL (≈ 4.8 µM)
MIC ([25]; read-out: MIC Range): 0.03 to 2 µg/mL (≈ 0.0721 to 4.8 µM)
MIC90 [26]: 2 µg/mL (≈ 4.8 µM)
MIC90 [27]: 0.06 µg/mL (≈ 0.144 µM)
MIC ([27]; read-out: MIC Range): 0.015 to 0.12 µg/mL (≈ 0.036 to 0.288 µM)
MIC50 ([27]; N. gonorrhoeae, 12 isolates, read-out: MIC50): 0.015 µg/mL (≈ 0.036 µM)
MIC90 [28]: 0.5 µg/mL (≈ 1.2 µM)
MIC ([28]; read-out: MIC Range): 0.25 to 0.5 µg/mL (≈ 0.6 to 1.2 µM)
MIC50 ([28]; P. mirabilis, 20 isolates, read-out: MIC50): 0.25 µg/mL (≈ 0.6 µM)
MIC [29]: 0.03 to 1 µg/mL (≈ 0.0721 to 2.4 µM)
MIC50 ([29]; read-out: MIC50): 0.06 µg/mL (≈ 0.144 µM)
MIC90 ([29]; read-out: MIC90): 0.12 µg/mL (≈ 0.288 µM)
MIC [30]: 0.015 to 0.03 µg/mL (≈ 0.036 to 0.0721 µM)
MIC50 ([30]; read-out: MIC50): 0.03 µg/mL (≈ 0.0721 µM)
MIC90 ([30]; read-out: MIC90): 0.03 µg/mL (≈ 0.0721 µM)
